Literature values, collected in patent US6992047B2, “Method of microencapsulating an agricultural active having a high melting point and uses for such materials” (Monsanto Technology LLC, priority 2001, dated 2006).

Details: at 20° C.

C=CCNC(=O)c1c([Si](C)(C)C)sc(C)c1C [silthiopham, 4,5-dimethyl-N-(2-propenyl)-2-(trimethylsilyl)-3-thiophenecarboxamide]
water solubility: 35 ppm
